Consider 40 molecules from patent US20230111310A1, “CARBOXYLIC ACID DERIVATIVE-SUBSTITUTED IMINO ARYL COMPOUND, PREPARATION METHOD THEREFOR, HERBICIDAL COMPOSITION AND USE THEREOF” (Qingdao Kingagroot Chemical Compound Co., Ltd., priority 2020, published 2023).

What all share (format): in vivo
One test has as its system Echinochloa crusgalli. Briefly: Weeding effect in post-emergence stage. To be noted: post-emergence, 7.5 g/ha, 3 weeks. In outline:
(§1)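 Post-emergence spray tower; 2-3 leaf plants (2 wk after sowing, soil pots, greenhouse). Formulation: acetone, Tween 80, methyl oleate EC 1.5 liter/ha as synergist, water. Rates 500–7.5 g/ha. Growth control rate read at 3 wk; n=3, averaged.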

A further test has as its system Amaranthus retroflexus. In words: Weeding effect in post-emergence stage. The following applies: 7.5 g/ha, 3 weeks. In outline:
as §1

In a further test the test system is Eleusine indica. Briefly: Weeding effect in post-emergence stage. The following applies: post-emergence, 7.5 g/ha, 3 weeks. In outline: as §1
In the next test the test system is Veronica didyma Tenore. In words: Composition activity test, post-emergence foliage spray. The following applies: for pest or weed control at 90 g/ha: B 90 g a.i./ha. Here is the method:
(§2) are as follows, and the others were purchased from reagent companies. The technical materials were all dissolved in acetone and diluted with an aqueous solution containing 0.1% emulsifier Tween-80. The dilution is performed as required.
(§3) Weeds were cultivated by a pot culture method. […] Full and uniform weed seeds were selected, soaked in warm water at 25° C. for 6 hours, and germinated in a 28° C. biochemical incubator (darkness). The weed seeds that had just germinated were evenly placed on the surface of the soil and then covered with 0.5-1 cm soil according to the sizes of seeds.
(§4) The culture was carried out in a controllable sunlight greenhouse at 20 to 30° C., in natural light, and relative humidity of 57% to 72%.
(§5) 3 pots with 20 weed seeds per pot were treated in one treatment with 4 replications per treatment.
(§6) The agents were used for only once in the experiment. In the stage of weeds with 1.5-2 leaves, the weeds were thinned out to maintain 10 weeds per pot and 30 weeds for each treatment, then continued to be cultured to Conyza Canadensis 10 cm in height, other weeds 3-4 leaves stage and treated.
(§7) The well-cultured weeds were evenly placed on a platform with an area of 0.5 m^2, and a solution of agents was sprayed on the stems and leaves thereof by the 3WP-2000-type walking spray tower at a dosage of 450 kg/ha and at a spray pressure of 0.3 MPa. After all the solution was sprayed, the valve was closed. After 30 seconds, the door of the spray tower was opened, and the nutritional bowl was taken out. Then the valve was opened, and the spray tube was cleaned by spraying 50 ml of water. After the treatment, the weeds were routinely cultured in a greenhouse.
(§8) A method for investigating absolute number was employed, wherein whole seedlings of survival weeds were cut off with a blade along the soil surface, and the fresh weight of the weeds was weighed with an analytical balance. For dead weeds, the fresh weight thereof was zero.
(§9) The investigation was performed after 21 days of the treatment for only once.
(§10) An optimum ratio of the two active ingredients was determined by the actual control effect, characteristics of herbicides, and balance of a corresponding formula. Wherein, in the formula, X represented the fresh weight inhibition rate of the active ingredient A in a dosage of P, and Y represented the fresh weight inhibition rate of the active ingredient B in a dosage of Q. The statistical results were shown in the table 6.

For the next test, the system named is Eclipta prostrate. The test is described as above. The following applies: for pest or weed control at 150 g/ha: B 150 g a.i./ha; for pest or weed control at 225 g/ha: B 225 g a.i./ha. Here is the method:
as §2, §3, §4, §5, §6, §7, §8, §9, §10

The subject of another test is Lithospermum arvense. The description is as above. How it is done:
as §2, §3, §4, §5, §6, §7, §8, §9, §10

In the next test the test system is Malachium aquaticum. The test is described as above. How it is done: as §2, §3, §4, §5, §6, §7, §8, §9, §10
[1] abbreviates: Veronica polita, foliar, read-out: Control effect (%) of B applied alone (B).
[2] abbreviates: Veronica polita, foliar, Veronica didyma Tenore, foliage, read-out: Control effect (%) of B applied alone (B).
Setting [3] is: foliar, Eclipta prostrate, foliage, read-out: Control effect (%) of B applied alone (B).
[4] abbreviates: Eclipta, foliar, read-out: Control effect (%) of B applied alone (B).

Where two headings read alike, the source gives them in different places.

Regarding `COC(=O)[C@H](C)O/N=C/c1cc(-n2c(=O)n(C)c(=S)n(C)c2=O)c(F)cc1Cl` [1(S)], in the test with Echinochloa crusgalli, the “activity level (growth control rate) Echinochloa crusgalli” value was 1 (Level 1: growth control rate is greater than or equal to 5% and less than 20%). Further, the “activity level (growth control rate) Amaranthus retroflexus” value with Amaranthus retroflexus is 1 (Level 1: growth control rate is greater than or equal to 5% and less than 20%). For the same molecule, the “activity level (growth control rate) Eleusine indica” value with Eleusine indica was 1 (Level 1: growth control rate is greater than or equal to 5% and less than 20%).

As to `O=C(O)COc1ccc(Cl)cc1Cl` [2,4-dichlorophenoxy acetic acid], the pest or weed control at 150 g/ha with Veronica didyma Tenore (setting [1]) turned out to be 32.6%.

With `Cc1cc(Cl)ccc1OCC(=O)O` [2-methyl-4-chlorophenoxy acetic acid, 2-methyl-4-chlorophenoxyacetic acid], the pest or weed control at 150 g/ha in the test with Veronica didyma Tenore (setting [1]) was determined as 39.3%.

With `COC(=O)[C@H](C)O/N=C/c1cc(-n2c(=O)cc(C(F)(F)F)n(C)c2=O)c(F)cc1Cl` [194(S)], the “activity level (growth control rate) Echinochloa crusgalli” value in the test with Echinochloa crusgalli is 1 (Level 1: growth control rate is greater than or equal to 5% and less than 20%). The “activity level (growth control rate) Amaranthus retroflexus” value with Amaranthus retroflexus was 2 (Level 2: growth control rate is greater than or equal to 20% and less than 40%). In the test on Eleusine indica, the “activity level (growth control rate) Eleusine indica” value was 1 (Level 1: growth control rate is greater than or equal to 5% and less than 20%).

On to `C[C@@H](Oc1nc(F)c(Cl)c(N)c1Cl)C(=O)OCC1CCCO1` (some centres unmarked) [Cpd B2], for which the pest or weed control at 90 g/ha with Veronica didyma Tenore (setting [2]) is 42.1%.

Turning to `CC(C)c1nn(C(=O)NC(C)(C)C)c(=O)n1N` [amicarbazone], the “Control effect (%) of B applied alone (B)” value (shortened to “Control effect (%)”) in the test with Eclipta prostrate (Eclipta prostrate, foliage, B 60 g a.i./ha) is 43.7%.

On to `Nc1cc(Cl)nc(C(=O)O)c1Cl` [aminopyralid], for which the “Control effect (%)” value in the test on Veronica didyma Tenore (Veronica didyma Tenore, foliage, B 30 g a.i./ha) was 32.2%.

Regarding `CC(C)N1C(=O)c2ccccc2NS1(=O)=O` [bentazone], the pest or weed control at 150 g/ha in the test with Eclipta prostrate (setting [3]) came out at 30.2%.

On to `CCC(C)n1c(=O)[nH]c(C)c(Br)c1=O` (centres unmarked) [bromacil], for which, in the test on Eclipta prostrate (setting [4]), the pest or weed control at 450 g/ha is 28.4%.

Turning to `N#Cc1cc(Br)c(O)c(Br)c1` [bromoxynil], the pest or weed control at 60 g/ha in the test with Eclipta prostrate (foliar, Eclipta prostrate, foliage, B 60 g a.i./ha, read-out: Control effect (%) of B applied alone (B)) was determined as 41.2%.

Take `CCOC(=O)C(Cl)Cc1cc(-n2nc(C)n(C(F)F)c2=O)c(F)cc1Cl` (centres unmarked) [carfentrazone-ethyl]: the “Control effect (%)” value with Lithospermum arvense (B 4.5 g a.i./ha) came to 27.2%.

On to `Cc1ccc(NC(=O)N(C)C)cc1Cl` [chlorotoluron], for which, in the test with Eclipta prostrate (setting [3]), the pest or weed control at 225 g/ha was 24.5%.

For `O=C(O)c1nc(Cl)ccc1Cl` [clopyralid], the pest or weed control at 45 g/ha in the test on Veronica didyma Tenore (Veronica polita, foliar, Veronica didyma Tenore, foliage, B 45 g a.i./ha, read-out: Control effect (%) of B applied alone (B)) was found to be 28.9%.

On to `CCOC(=O)Nc1cccc(OC(=O)Nc2ccccc2)c1` [desmedipham], for which, in the test with Eclipta prostrate (setting [4]), the pest or weed control at 300 g/ha is 16.2%.

As to `COc1c(Cl)ccc(Cl)c1C(=O)O` [dicamba], the pest or weed control at 150 g/ha with Veronica didyma Tenore (Veronica polita, foliar, Veronica didyma Tenore, foliage, B 150 g a.i./ha, read-out: Control effect (%) of B applied alone (B)) was 29.7%.

Consider `COc1c(Cl)ccc(-c2nc(C(=O)OCc3ccccc3)c(Cl)c(N)c2F)c1F` [florpyrauxifen benzyl], for which, in the test on Veronica didyma Tenore (Veronica didyma Tenore, foliage, B 15 g a.i./ha), the “Control effect (%)” value is 50.3%.

For `C#CCN1C(=O)COc2cc(F)c(N3C(=O)C4=C(CCCC4)C3=O)cc21` [flumioxazin], in the test on Lithospermum arvense (B 7.5 g a.i./ha), the “Control effect (%)” value is on record as 29.4%.

As to `Nc1c(Cl)c(F)nc(OCC(=O)O)c1Cl` [fluroxypyr], the pest or weed control at 60 g/ha with Veronica didyma Tenore (Veronica polita, foliar, Veronica didyma Tenore, foliage, B 60 g a.i./ha, read-out: Control effect (%) of B applied alone (B)) amounted to 39.3%.

As for `COC(=O)c1nc(-c2ccc(Cl)c(OC)c2F)cc(N)c1Cl` [halauxifen-methyl], the “Control effect (%)” value in the test on Veronica didyma Tenore (Veronica didyma Tenore, foliage, B 3 g a.i./ha) was found to be 35.6%.

As for `COC(=O)c1c(Cl)nn(C)c1S(=O)(=O)NC(=O)Nc1nc(OC)cc(OC)n1` [halosulfuron methyl], the “Control effect (%)” value in the test with Malachium aquaticum (B 9 g a.i./ha) stood at 36.4%.

On to `COCc1cnc(C2=NC(C)(C(C)C)C(=O)N2)c(C(=O)O)c1` (centres unmarked) [imazamox], for which, in the test on Malachium aquaticum (B 15 g a.i./ha), the “Control effect (%)” value was determined as 27.2%.

Consider `CC(C)c1ccc(NC(=O)N(C)C)cc1` [isoproturon], for which, in the test on Eclipta prostrate (setting [3]), the pest or weed control at 225 g/ha amounted to 33.9%.

For the molecule `CSc1nnc(C(C)(C)C)c(=O)n1N` [metribuzin], in the test with Eclipta prostrate (foliar, Eclipta prostrate, foliage, B 15 g a.i./ha, read-out: Control effect (%) of B applied alone (B)), the pest or weed control at 15 g/ha was 36.3%.

With `COc1cc(OC)nc(NC(=O)NS(=O)(=O)c2ncccc2C(=O)N(C)C)n1` [nicosulfuron], the “Control effect (%)” value in the test with Malachium aquaticum (B 3 g a.i./ha) worked out at 31.4%.

For `CC(C)Oc1cc(-n2nc(C(C)(C)C)oc2=O)c(Cl)cc1Cl` [oxadiazon], in the test with Lithospermum arvense (B 90 g a.i./ha), the “Control effect (%)” value stood at 24.3%.

In the case of `CCOc1cc(Oc2ccc(C(F)(F)F)cc2Cl)ccc1[N+](=O)[O-]` [oxyfluorfen], the “Control effect (%)” value in the test with Lithospermum arvense (B 60 g a.i./ha) stood at 31.5%.

Turning to `COC(=O)Nc1cccc(OC(=O)Nc2cccc(C)c2)c1` [phenmedipham], the pest or weed control at 300 g/ha in the test on Eclipta prostrate (setting [4]) came to 20.8%.

As for `Nc1c(Cl)c(Cl)nc(C(=O)O)c1Cl` [picloram], the pest or weed control at 300 g/ha with Veronica didyma Tenore (Veronica polita, foliar, Veronica didyma Tenore, foliage, B 300 g a.i./ha, read-out: Control effect (%) of B applied alone (B)) amounted to 43.6%.

On to `CCC(=O)Nc1ccc(Cl)c(Cl)c1` [propanil], for which the pest or weed control at 300 g/ha in the test on Eclipta prostrate (foliar, Eclipta prostrate, foliage, B 300 g a.i./ha, read-out: Control effect (%) of B applied alone (B)) was determined as 21.7%.

In the case of `C#CCN(C)c1c(C#N)cnn1-c1nn2c(c1Cl)CCCC2` [pyraclonil], in the test with Lithospermum arvense (B 75 g a.i./ha), the “Control effect (%)” value was 37.9%.

Consider `CCS(=O)(=O)c1cccnc1S(=O)(=O)NC(=O)Nc1nc(OC)cc(OC)n1` [rimsulfuron], for which the “Control effect (%)” value in the test with Malachium aquaticum (B 1.5 g a.i./ha) amounted to 26.2%.

Consider `CC(C)N(C)S(=O)(=O)NC(=O)c1cc(-n2c(=O)cc(C(F)(F)F)n(C)c2=O)c(F)cc1Cl` [saflufenacil], for which the “Control effect (%)” value with Lithospermum arvense (B 0.75 g a.i./ha) is on record as 39.7%.

For the molecule `Cc1nn(-c2cc(NS(C)(=O)=O)c(Cl)cc2Cl)c(=O)n1C(F)F` [sulfentrazone], the “Control effect (%)” value in the test with Lithospermum arvense (B 90 g a.i./ha) was 26.5%.

As for `CCNc1nc(Cl)nc(NC(C)(C)C)n1` [terbuthylazine], the pest or weed control at 150 g/ha in the test with Eclipta prostrate (setting [3]) was found to be 31.7%.

Take `COC(=O)c1csc(C)c1S(=O)(=O)NC(=O)n1nc(OC)n(C)c1=O` [thiencarbazone-methyl]: in the test on Malachium aquaticum (B 3 g a.i./ha), the “Control effect (%)” value was 41.1%.

Regarding `COC(=O)c1sccc1S(=O)(=O)NC(=O)Nc1nc(C)nc(OC)n1` [thifensulfuron methyl], the “Control effect (%)” value in the test with Malachium aquaticum (B 4.5 g a.i./ha) amounted to 30.8%.

Consider `COC(=O)c1ccccc1S(=O)(=O)NC(=O)N(C)c1nc(C)nc(OC)n1` [tribenuron-methyl], for which the “Control effect (%)” value with Malachium aquaticum (B 3 g a.i./ha) came out at 27.9%.

In the case of `O=C(O)COc1nc(Cl)c(Cl)cc1Cl` [triclopyr], the pest or weed control at 90 g/ha in the test with Veronica didyma Tenore (setting [2]) was 34.2%.

With `C#CCN1C(=O)C(F)(F)Oc2cc(F)c(-n3c(=O)n(C)c(=S)n(C)c3=O)cc21` [trifludimoxazin], in the test with Lithospermum arvense (B 4.5 g a.i./ha), the “Control effect (%)” value amounted to 31.8%.

Take oxadiargyl: in the test on Lithospermum arvense (B 30 g a.i./ha), the “Control effect (%)” value was 38.7%.
